This note sets out measurements from patent US20200138892A1, “ANTI-DIABETIC ACTIVITY OF NEEM EXTRACT AND SYNERGISTIC COMBINATIONS OF UROLITHINS A AND B” (Natreon, Inc., priority 2018, published 2020).

Marks after values point to notes of the source that are not given here.

Holding throughout (assay type): in vivo
In assay [1] the test system is streptozotocin-induced diabetic mice. The experiment in a line: Fasting blood glucose in streptozotocin-induced diabetic mice (Study 2). Conditions: for Fasting blood glucose: 10 mg/kg body weight orally; for Effect on STZ-induced increased sugar level (FBG), words: 10 mg/kg orally for 1 month, p<0.001 vs STZ. As to the method:
Body weight, food intake, water intake, and fasting blood glucose (blood was collected following 12 hours fasting) were measured pre-induction of diabetes. Diabetes was induced by administering streptozotocin (50 mg/kg, body weight) in sodium citrate buffer, pH 4.5, intraperitoneally. Five days after streptozotocin administration fasting blood glucose was estimated (following 12 hours of fasting). Mice having blood glucose level 250±20 mg % was considered for the following study. The male and female mice were divided into the following four groups (n=8):
Following streptozotocin-induced hyperglycemia, treatment regimen was carried out for 1 month. 3-OH-DBP (Urolithin B) and 3,8-(OH)2-DBP (Urolithin A) each was separately suspended in 0.3% CMC and administered at a dose of 10 mg/kg body weight orally for 1 month. During the 1-month treatment, body weight and food and water intake were monitored at regular intervals. FBG (following 12 hours of fasting) was estimated twice at 15-day intervals. The results were expressed in terms of mean±SEM (n=8). The data were subjected to one-way ANOVA followed by Tukey's test using GraphPad Prism 4.0 software to establish statistical significance (*p<0.05, **p<0.01, ***p<0.001; ^# p<0.05, ^## p<0.01, ^### p<0.001).

For assay [2] the test system is unchanged. The experiment in a line: Fasting blood glucose in streptozotocin-induced diabetic mice (Study 1). Conditions: for Blood sugar level (FBG): 250 mg/kg b.w. orally; for Effect on STZ-induced increased sugar level (FBG), words: Neem 50, Neem 100, Neem 250, Met 250, vs STZ-induced diabetic mice. As to the method: (§1) Body weight, food intake, water intake, and fasting basal blood glucose level were measured before induction on diabetes. Diabetes was induced by single administration of streptozotocin (65 mg/kg body weight) in sodium citrate buffer, pH 4.5, intraperitoneally. Five days after streptozotocin administration, fasting blood glucose level was estimated. Mice having blood glucose levels of 230±20 mg % were considered for the study. The male and female mice each were divided into the following groups:
Following streptozotocin-induced hyperglycemia, the treatment regimen was carried out for two weeks. Neem extract was suspended in 0.3% sodium carboxymethylcellulose (“CMC”) and administered at a dose of 50 mg/kg b.w., 100 mg/kg b.w., and 250 mg/kg b.w. orally for two weeks. Similarly, metformin was suspended in 0.3% CMC and administered at a dose of 250 mg/kg b.w. orally for two weeks. During the treatment schedule, body weight and food and water intake were monitored at regular intervals. Fasting blood glucose (“FBG”), HbA1C, plasma cholesterol, and triglyceride levels were monitored every week for two weeks. The results were expressed in terms of mean±SEM (n=4, from each gender). The data were subjected to one-way ANOVA followed by Tukey's test using GraphPad Prism 4.0 software to establish statistical significance (*p<0.05, **p<0.01, ***p<0.001; ^# p<0.05, ^## p<0.01, ^### p<0.001).

Assay [3] shares this test system. The assay is described as above. Particulars: 250 mg/kg b.w. orally, Week 3.
Assay [4] shares this test system. The assay can be described thus: HbA1C level in streptozotocin-induced diabetic mice (Study 1). Particulars: for HbA1C level: 250 mg/kg b.w. orally. As to the method:
as §1
Following streptozotocin-induced hyperglycemia, the treatment regimen was carried out for two weeks. Neem extract was suspended in 0.3% sodium carboxymethylcellulose (“CMC”) and administered at a dose of 50 mg/kg b.w., 100 mg/kg b.w., and 250 mg/kg b.w. orally for two weeks. Similarly, metformin was suspended in 0.3% CMC and administered at a dose of 250 mg/kg b.w. orally for two weeks. During the treatment schedule, body weight and food and water intake were monitored at regular intervals. […] The results were expressed in terms of mean±SEM (n=4, from each gender). The data were subjected to one-way ANOVA followed by Tukey's test using GraphPad Prism 4.0 software to establish statistical significance (*p<0.05, **p<0.01, ***p<0.001; ^# p<0.05, ^## p<0.01, ^### p<0.001).

Where [5] appears, read: STZ-induced diabetic female mice, Day 5 (Post-Induction).
[6] abbreviates: STZ-induced diabetic female mice, Day 15 of treatment.
Setting [7] is: STZ-induced diabetic female mice, Day 30 of treatment.
Setting [8] is: STZ-induced diabetic female mice, Pre-Induction.
Where [9] appears, read: STZ-induced diabetic male mice, Day 5 (Post-Induction).
Where [10] appears, read: STZ-induced diabetic male mice, Day 15 of treatment.
The mark [11] stands for this setting: STZ-induced diabetic male mice, Day 30 of treatment.
Setting [12] is: STZ-induced diabetic male mice, Pre-Induction.
Where [13] appears, read: STZ-induced diabetic female mice, Week 2.
Where [14] appears, read: STZ-induced diabetic male mice, Week 2.

`O=c1oc2cc(O)ccc2c2ccc(O)cc12` [3,8-(OH)2-DBP, 3,8-dihydroxy-dibenzo-α-pyrone]: the Fasting blood glucose in assay [1] (setting [5]) is 253.2 ± 5.194*** mg %; in assay [1] (setting [6]), 166 ± 2.623***^, ### mg %; in assay [1] (setting [7]) it was 153.9 ± 9.953***^, ### mg %; in assay [1] (setting [8]), 95.45 ± 12.67 mg %; in assay [1] (setting [9]), 252.2 ± 1.780 mg %; in assay [1] (setting [10]) it was 166 ± 5.276***^, ### mg %. Moreover, the Fasting blood glucose in assay [1] (setting [11]) is 156.7 ± 10.75***^, ### mg %; in assay [1] (setting [12]), 94.12 ± 7.811*** mg %. Besides, the “Effect on STZ-induced increased sugar level (FBG), words” value in assay [1] (female mice) and in assay [1] (male mice) was “attenuated the STZ-induced increased sugar level” each time.

On to `O=c1oc2cc(O)ccc2c2ccccc12` [3-OH-DBP, 3-hydroxy-dibenzo-α-pyrone], for which the Fasting blood glucose in assay [1] (setting [5]) is 251.6 ± 1.280*** mg %; in assay [1] (setting [6]), 189.8 ± 2.690***^, ### mg %; in assay [1] (setting [7]), 147.3 ± 15.21***^, ### mg %; in assay [1] (setting [8]), 126.8 ± 3.848 mg %; in assay [1] (setting [9]) it was 254.6 ± 1.575 mg %; in assay [1] (setting [10]), 171 ± 6.586***^, ### mg %. The Fasting blood glucose in assay [1] (setting [11]) is reported as 134.2 ± 3.381***^, ### mg %; in assay [1] (setting [12]) it was 99.06 ± 14.73*** mg %. Further, the “Effect on STZ-induced increased sugar level (FBG), words” value in assay [1] (female mice) and in assay [1] (male mice) was “attenuated the STZ-induced increased sugar level” throughout.

Regarding `CN(C)C(=N)N=C(N)N` [Metformin, metformin], the “Blood sugar level (FBG)” value in assay [2] (STZ-induced diabetic female mice, Day 0) is 119.2 ± 15.5 ^ mg %; in assay [2] (STZ-induced diabetic female mice, Week 1), 241.1 ± 22.19*** mg %; in assay [2] (setting [13]), 133.8 ± 9.04^## mg %; in assay [2] (STZ-induced diabetic male mice, Day 0), 117.3 ± 23.99 ^ mg %; in assay [2] (STZ-induced diabetic male mice, Week 1), 269.2 ± 25.37*** mg %; in assay [2] (setting [14]), 133.4 ± 7.96**^, # mg %. Also, the “Blood sugar level (FBG)” value in assay [3] (STZ-induced diabetic female mice) was 121.2 ± 8.192 mg %; in assay [3] (STZ-induced diabetic male mice), 136.2 ± 4.89 mg %. Further, the “Effect on STZ-induced increased sugar level (FBG), words” value in assay [2] (female mice) and in assay [2] (male mice) was “attenuated the STZ-induced increased sugar level” throughout. For the same molecule, the HbA1C level in assay [4] (setting [13]) was 5.53 ± 0.46%; in assay [4] (STZ-induced diabetic female mice, Week 3), 3.08 ± 0.58^## %; in assay [4] (setting [14]) it was 5.05 ± 0.51%; in assay [4] (STZ-induced diabetic male mice, Week 3) it was 4.40 ± 0.65^# %. Further, the “Effect on STZ-induced increase in HbA1C level, words” value in assay [4] (male and female mice, Neem 50, Neem 100, Neem 250, Met 250, vs STZ-induced diabetic mice) is on record as “attenuated the STZ-induced increased in HbA1C level”.
